Test results published in PubChem BioAssay (NCI).
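Protocol summary: plate cells (96-well), add compound at 5 concentrations, incubate 48 h, interpolate endpoints linearly. TGI: concentration producing complete growth inhibition.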

What was measured:
Assay in all cases: NCI tumour cell line growth inhibition, 48 h
[1] = system: MALME-3M melanoma
[2] = system: K-562 leukemia
[3] = system: OVCAR-4 ovarian
[4] = system: SNB-19 CNS
[5] = system: EKVX NSCLC
[6] = system: SK-MEL-28 melanoma
[7] = system: A498 renal
[8] = system: 786-0 renal
[9] = system: HCT-116 colon
[10] = system: UACC-62 melanoma
[11] = system: SNB-75 CNS
[12] = system: SF-539 CNS
[13] = system: DU-145 prostate
[14] = system: SN12C renal
[15] = system: HS 578T breast
[16] = system: MDA-MB-231 breast
[17] = system: OVCAR-8 ovarian
[18] = system: SK-MEL-2 melanoma
[19] = system: ACHN renal
[20] = system: TK-10 renal
[21] = system: A549 NSCLC
[22] = system: UO-31 renal
[23] = system: CAKI-1 renal
[24] = system: NCI-H460 lung
[25] = system: U251 CNS
[26] = system: HCT-15 colon
[27] = system: HOP-62 NSCLC
[28] = system: PC-3 prostate
[29] = system: DMS 114 small cell lung
[30] = system: KM12 colon
[31] = system: M14 melanoma
[32] = system: SR leukemia
[33] = system: LXFL 529 NSCLC
[34] = system: IGROV1 ovarian
[35] = system: NCI-H23 lung
[36] = system: RPMI-8226 leukemia
[37] = system: DMS 273 small cell lung
[38] = system: HL-60(TB) leukemia
[39] = system: SF-295 CNS
[40] = system: T-47D breast
[41] = system: LOX IMVI melanoma
[42] = system: SNB-78 CNS
[43] = system: RXF 393 renal
[44] = system: SK-OV-3 ovarian
[45] = system: M19-MEL melanoma
[46] = system: RXF-631 renal
[47] = system: SF-268 CNS
[48] = system: DLD-1 colon
[49] = system: SW-620 colon
[50] = system: KM20L2 colon
[51] = system: OVCAR-5 ovarian
[52] = system: HOP-92 NSCLC
[53] = system: XF 498 CNS
[54] = system: HOP-18 NSCLC
[55] = system: NCI-H522 lung
[56] = system: NCI/ADR-RES ovarian
[57] = system: MDA-MB-435
[58] = system: NCI-H226 lung
[59] = system: MDA-N
[60] = system: HCC-2998 colon
[61] = system: OVCAR-3 ovarian
[62] = system: HT29 colon
[63] = system: UACC-257 melanoma
[64] = system: SK-MEL-5 melanoma
[65] = system: COLO 205 colon
[66] = system: MOLT-4 leukemia
[67] = system: CCRF-CEM leukemia

SMILES: CC(C)C1=Cc2ccc3c(c2C(=O)C1=O)CCCC3
- TGI [1]: 5.78 µM
- TGI [2]: 14.1 µM
- TGI [3]: 3.16 µM
- TGI [4]: 37.5 µM
- TGI [5]: 19.2 µM
- TGI [6]: 15.8 µM
- TGI [7]: 18.5 µM
- TGI [8]: 6.02 µM
- TGI [9]: 5.39 µM
- TGI [10]: 15.4 µM
- TGI [11]: 4.76 µM
- TGI [12]: 16.9 µM
- TGI [13]: 32 µM
- TGI [14]: 13.1 µM
- TGI [15]: 55.9 µM
- TGI [16]: 34.1 µM
- TGI [17]: 13.4 µM
- TGI [18]: 18.8 µM
- TGI [19]: 7.13 µM
- TGI [20]: 6.55 µM
- TGI [21]: 34.4 µM
- TGI [22]: 6.74 µM
- TGI [23]: 2.15 µM
- TGI [24]: 26.6 µM
- TGI [25]: 42.4 µM
- TGI [26]: 9.03 µM
- TGI [27]: 42.1 µM
- TGI [28]: 26.8 µM
- TGI [29]: 3.61 µM
- TGI [30]: 32.4 µM
- TGI [31]: 11.1 µM
- TGI [32]: 2.77 µM
- TGI [33]: 2.52 µM
- TGI [34]: 12.1 µM
- TGI [35]: 20.3 µM
- TGI [36]: 6.6 µM
- TGI [37]: 13.6 µM
- TGI [38]: 1.95 µM
- TGI [39]: 25.8 µM
- TGI [40]: 0.567 µM
- TGI [41]: 25.6 µM
- TGI [42]: 11.9 µM
- TGI [43]: 7.82 µM
- TGI [44]: 30.5 µM
- TGI [45]: 8.59 µM
- TGI [46]: 25.1 µM
- TGI [47]: 16.6 µM
- TGI [48]: 3.31 µM
- TGI [49]: 14 µM
- TGI [50]: 42.7 µM
- TGI [51]: 28.6 µM
- TGI [52]: 2.27 µM
- TGI [53]: 5.53 µM
- TGI [54]: 8.96 µM
- TGI [55]: 18.1 µM
- TGI [56]: 52.1 µM
- TGI [57]: 21.4 µM
- TGI [58]: 36.1 µM
- TGI [59]: 19.3 µM
- TGI [60]: 30.9 µM
- TGI [61]: 5.33 µM
- TGI [62]: 25.1 µM
- TGI [63]: 6.57 µM
- TGI [64]: 25.6 µM
- TGI [65]: 27.1 µM

SMILES: O=C1CCC2(c3ccc(Cl)cc3)Nc3ccccc3N12 (centres undefined)
- TGI [1]: > 100 µM
- TGI [2]: > 100 µM
- TGI [3]: > 100 µM
- TGI [4]: > 100 µM
- TGI [5]: > 100 µM
- TGI [6]: > 100 µM
- TGI [7]: > 100 µM
- TGI [8]: > 100 µM
- TGI [9]: > 100 µM
- TGI [11]: > 100 µM
- TGI [12]: > 100 µM
- TGI [14]: > 100 µM
- TGI [17]: > 100 µM
- TGI [18]: > 100 µM
- TGI [19]: > 100 µM
- TGI [20]: > 100 µM
- TGI [21]: > 100 µM
- TGI [22]: > 100 µM
- TGI [24]: > 100 µM
- TGI [25]: > 100 µM
- TGI [26]: > 100 µM
- TGI [27]: > 100 µM
- TGI [29]: > 100 µM
- TGI [30]: > 100 µM
- TGI [32]: > 100 µM
- TGI [33]: > 100 µM
- TGI [34]: > 100 µM
- TGI [35]: > 100 µM
- TGI [36]: > 100 µM
- TGI [38]: > 100 µM
- TGI [39]: > 100 µM
- TGI [66]: > 100 µM
- TGI [41]: > 100 µM
- TGI [42]: > 100 µM
- TGI [43]: > 100 µM
- TGI [45]: > 100 µM
- TGI [46]: > 100 µM
- TGI [47]: > 100 µM
- TGI [48]: > 100 µM
- TGI [49]: > 100 µM
- TGI [50]: > 100 µM
- TGI [51]: > 100 µM
- TGI [52]: 90.6 µM
- TGI [53]: > 100 µM
- TGI [54]: > 100 µM
- TGI [55]: > 100 µM
- TGI [58]: > 100 µM
- TGI [60]: > 100 µM
- TGI [62]: > 100 µM
- TGI [63]: > 100 µM
- TGI [65]: > 100 µM

SMILES: COC(=O)C(Cc1nc2ccc(Cl)cc2[nH]c1=O)C(=O)C(=O)Nc1cc(C)ccc1C (centres undefined)
- TGI [1]: > 100 µM
- TGI [2]: > 100 µM
- TGI [3]: > 100 µM
- TGI [4]: > 100 µM
- TGI [5]: > 100 µM
- TGI [6]: > 100 µM
- TGI [7]: > 100 µM
- TGI [8]: > 100 µM
- TGI [9]: > 100 µM
- TGI [10]: > 100 µM
- TGI [11]: > 100 µM
- TGI [12]: > 100 µM
- TGI [14]: > 100 µM
- TGI [17]: > 100 µM
- TGI [18]: > 100 µM
- TGI [19]: > 100 µM
- TGI [20]: > 100 µM
- TGI [21]: > 100 µM
- TGI [22]: > 100 µM
- TGI [23]: > 100 µM
- TGI [24]: > 100 µM
- TGI [67]: > 100 µM
- TGI [25]: > 100 µM
- TGI [26]: > 100 µM
- TGI [27]: > 100 µM
- TGI [29]: > 100 µM
- TGI [30]: > 100 µM
- TGI [31]: > 100 µM
- TGI [32]: > 100 µM
- TGI [33]: > 100 µM
- TGI [34]: > 100 µM
- TGI [35]: > 100 µM
- TGI [36]: > 100 µM
- TGI [37]: > 100 µM
- TGI [38]: > 100 µM
- TGI [39]: > 100 µM
- TGI [66]: > 100 µM
- TGI [41]: > 100 µM
- TGI [42]: > 100 µM
- TGI [43]: > 100 µM
- TGI [44]: > 100 µM
- TGI [45]: > 100 µM
- TGI [46]: > 100 µM
- TGI [47]: > 100 µM
- TGI [48]: > 100 µM
- TGI [49]: > 100 µM
- TGI [50]: > 100 µM
- TGI [51]: > 100 µM
- TGI [53]: > 100 µM
- TGI [54]: > 100 µM
- TGI [55]: > 100 µM
- TGI [58]: > 100 µM
- TGI [60]: > 100 µM
- TGI [61]: > 100 µM
- TGI [62]: > 100 µM
- TGI [63]: > 100 µM
- TGI [64]: > 100 µM
- TGI [65]: > 100 µM
